For the series, the system named is NRK. Put plainly: Cellular uptake in rat NRK cells assessed as [14C]inostamycin level after 2 hrs. The class given is ADME, cell-based.

Each structure is given as a SMILES string.

We go through one compound from ChEMBL document CHEMBL1148060, “Biosynthetic Study and Radioisotope Labeling of Inostamycin” (J Nat Prod, 1994).

Take `CCC[C@H](O)[C@@]1(CC)C[C@@H](C)[C@](O)([C@]2(C)C[C@H](C)[C@@H]([C@@H](CC)C(=O)[C@@H](C)[C@@H](O)[C@H](C)[C@H]3O[C@@](O)([C@H](CC)C(=O)O)[C@@H](C)[C@H](O)[C@H]3CC)O2)O1` [INOSTAMYCIN]: the Activity result is given as “Dose-dependent effect”.
